As usually defined, the EC50 is the concentration at which the effect is half-maximal.

Assay [1] concerns the target serotonin 2B receptor (Arginine 388) (Homo sapiens, UniProt P41595). Kind of assay: cell-based.
Assay [2] has as its target serotonin 2B receptor R388W (Tryptophan 388) (Homo sapiens, UniProt P41595, R388W). Put plainly: cell-based.
The target of assay [3] is T1, dopamine D2 receptor L40R (Arginine 40) (Homo sapiens, UniProt P14416, L40R).
T1 construct: expressed in transfected cells; host or cells: NIH-3T3
Kind of assay: R-SAT functional assay, dopamine D2 receptor L40R. The class given is cell-based.

The target in assay [4] is dopamine D2 receptor (Leucine 40 / Valine 208) (Homo sapiens, UniProt P14416). Kind of assay: R-SAT functional assay, dopamine D2 receptor wild type. The format is cell-based.
For assay [5], the target named is T2, dopamine D2 receptor V208L (Leucine 208) (Homo sapiens, UniProt P14416, V208L).
T2 construct: expressed in transfected cells; host or cells: NIH-3T3
Kind of assay: R-SAT functional assay, dopamine D2 receptor V208L. The class given is cell-based.

Assay [6] deals with dopamine D1 receptor (Threonine 37 / Proline 79 / Serine 199) (Homo sapiens, UniProt P21728). Put plainly: R-SAT functional assay, dopamine D1 receptor wild type. The note with it: read-out: Ave −Log EC50 (converted). The class given is cell-based.
Assay [7] has as its target T3, dopamine D1 receptor T37P (Proline 37) (Homo sapiens, UniProt P21728, T37P).
T3 construct: expressed in transfected cells; host or cells: NIH-3T3
Put plainly: R-SAT functional assay, dopamine D1 receptor T37P. The format is cell-based. Particulars: Table 3.

Assay [8] has as its target T4, dopamine D1 receptor P79S (Serine 79) (Homo sapiens, UniProt P21728, P79S).
T4 construct: expressed in transfected cells; host or cells: NIH-3T3
Kind of assay: R-SAT functional assay, dopamine D1 receptor P79S. Particulars: Table 4. The class given is cell-based.

Assay [9] addresses T5, dopamine D1 receptor S199A (Alanine 199) (Homo sapiens, UniProt P21728, S199A).
T5 construct: expressed in transfected cells; host or cells: NIH-3T3
Put plainly: R-SAT functional assay, dopamine D1 receptor S199A. The class given is cell-based. Particulars: Table 5.

For assay [10], the target named is T6, alpha 1A/C receptor I200S (Serine 200) (Homo sapiens, UniProt P35348, C347R/I200S/Q431E).
T6 construct: expressed in transfected cells; host or cells: NIH-3T3
T6 sequence (P35348 1-464 I200S/C347R/Q431E): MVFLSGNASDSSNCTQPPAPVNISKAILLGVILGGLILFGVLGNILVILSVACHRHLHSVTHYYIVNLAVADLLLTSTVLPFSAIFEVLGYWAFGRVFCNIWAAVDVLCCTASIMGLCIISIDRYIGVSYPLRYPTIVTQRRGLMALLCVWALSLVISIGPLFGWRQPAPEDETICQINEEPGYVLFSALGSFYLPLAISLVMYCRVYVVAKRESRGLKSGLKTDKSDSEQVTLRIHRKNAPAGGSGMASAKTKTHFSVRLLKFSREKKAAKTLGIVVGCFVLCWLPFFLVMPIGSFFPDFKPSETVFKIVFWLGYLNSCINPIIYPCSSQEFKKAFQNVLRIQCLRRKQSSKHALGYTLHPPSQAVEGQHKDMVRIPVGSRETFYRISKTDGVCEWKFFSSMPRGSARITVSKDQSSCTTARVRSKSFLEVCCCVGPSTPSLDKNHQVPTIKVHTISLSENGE
Put plainly: R-SAT functional assay, alpha 1A/C receptor I200S. The class given is cell-based. The note with it: Table 2; for EC50: Serine 200 (I200S), read-out: Ave −Log EC50 (converted); for FOLD: shift in functional potency, Serine 200 vs Isoleucine 200.

For assay [11], the target named is T7, alpha 1A/C receptor (Glycine 43 / Isoleucine 200) (Homo sapiens, UniProt P35348, C347R/Q431E).
T7 construct: expressed in transfected cells; host or cells: NIH-3T3
T7 sequence (P35348 1-464 C347R/Q431E): T6 sequence (P35348 1-464 I200S/C347R/Q431E) with S200I
Kind of assay: R-SAT functional assay, alpha 1A/C receptor wild type. The class given is cell-based. Particulars: read-out: Ave −Log EC50 (converted).

Assay [12] deals with serotonin 1E receptor I44T (Threonine 44) (Homo sapiens, UniProt P28566, I44T). Put plainly: cell-based.
Assay [13] addresses serotonin 1E receptor S262F (Phenylalanine 262) (Homo sapiens, UniProt P28566, S262F). Put plainly: cell-based.
The target in assay [14] is serotonin 1E receptor (Isoleucine 44 / Serine 262) (Homo sapiens, UniProt P28566). Kind of assay: cell-based.
Assay [15] concerns the target serotonin 7 receptor (Leucine 421) (Homo sapiens, UniProt P34969). Kind of assay: R-SAT functional assay, serotonin 7 receptor wild type. The class given is cell-based. The note with it: Leucine 421 (wild type), inverse agonists, Table 20; for EC50: read-out: Ave −Log EC50 (converted).
For assay [16], the target named is serotonin 7 receptor L421P (Proline 421) (Homo sapiens, UniProt P34969, L421P). Kind of assay: R-SAT functional assay, serotonin 7 receptor L421P. The class given is cell-based. The note with it: Table 20; for EC50: read-out: Ave −Log EC50 (converted); for FOLD: shift in functional potency, Proline 421 vs Leucine 421.
In assay [17] the target is T8, histamine H2 receptor K231R (Arginine 231) (Homo sapiens, UniProt P25021, K231R).
T8 construct: expressed in transfected cells; host or cells: NIH-3T3
Put plainly: R-SAT functional assay, histamine H2 receptor K231R. The format is cell-based.

Assay [18] concerns the target histamine H2 receptor (Arginine 215 / Lysine 231) (Homo sapiens, UniProt P25021). Kind of assay: R-SAT functional assay, histamine H2 receptor wild type. The format is cell-based. Particulars: agonists and inverse agonists; for EC50: read-out: Ave −Log EC50 (converted).
The target in assay [19] is Neuropeptide Y1 receptor, wild type (Histidine 298) (UniProt P25929). Put plainly: cell-based or functional assay.
In assay [20] the target is T9, alpha 1A/C receptor G43C (Cysteine 43) (Homo sapiens, UniProt P35348, C347R/G43C/Q431E).
T9 construct: expressed in transfected cells; host or cells: NIH-3T3
Kind of assay: R-SAT functional assay, alpha 1A/C receptor G43C. The note with it: Table 1. The class given is cell-based.

In assay [21] the target is Neuropeptide Y1 receptor H298P variant (Proline 298) (UniProt P25929). Kind of assay: cell-based or functional assay.
Assay [22] addresses T10, cholecystokinin B receptor L224Q (Glutamine 224) (Homo sapiens, UniProt P32239, E288K/L224Q).
T10 construct: expressed in transfected cells; host or cells: NIH-3T3
Kind of assay: R-SAT functional assay, cholecystokinin B receptor L224Q. The format is cell-based.

The mark [23] stands for this setting: Isoleucine 200 (wild type), Table 2.
Where [24] appears, read: Proline 421 (L421P), inverse agonists.
[25] abbreviates: Arginine 215 (wild type), Table 10.
Where [26] appears, read: Lysine 231 (wild type), Table 11.

Where a chain is given by its changes, count along the chain named. “And” between values parts separate entries of the source, which are not always exact repeats. Identical values can stand only once. Counter-ions that a name gives are not always drawn. Like-named read-outs stand apart in the source and are kept apart here.

With `CN1C[C@H](C(=O)N[C@]2(C)O[C@@]3(O)[C@@H]4CCCN4C(=O)[C@H](Cc4ccccc4)N3C2=O)C[C@@H]2c3cccc4[nH]cc(c34)C[C@H]21` [Dihydroergotamine, dihydroergotamine], the EC50 is 0.0933 nM in [1]; 1.17 nM in [2]; 24.5 nM in assay [3]; 0.0513 nM and 0.269 nM in assay [4] (Ave −Log EC50); 0.0513 nM in assay [5]. Besides, the figures for the FOLD in assay [2], in [3] and in [5] were 2.5 fold, 479 fold and −5.2 fold, respectively.
As to `CN1CCc2c(cc(O)c(O)c2Cl)C(c2ccccc2)C1` (stereo not drawn) [SKF82957, R(+)-6-Chloro-7,8-dihydroxy-3-methyl-1-phenyl-2,3,4,5-tetrahydro-1H-3-benzazapine hydrobromide], the EC50 in assay [6] (Proline 79 (wild type), Table 4) is 34.7 nM; in assay [6] (Serine 199 (wild type), Table 5), 91.2 nM; in assay [6] (Threonine 37 (wild type), Table 3) it was 91.2 nM; in assay [7] (Proline 37 (T37P), read-out: Ave −Log EC50 (converted)), 955 nM; in assay [8] (Serine 79 (P79S), read-out: Ave −Log EC50 (converted)) it was 4570 nM; in [9] (Alanine 199 (S199A), read-out: Ave −Log EC50 (converted)) it was 955 nM. Also, the FOLD came to 11 fold in assay [7] (shift in functional potency, Proline 37 vs Threonine 37); 132 fold in assay [8] (shift in functional potency, Serine 79 vs Proline 79); 11 fold in [9] (shift in functional potency, Alanine 199 vs Serine 199).
As to `CC(CCc1ccc(O)cc1)NCCc1ccc(O)c(O)c1` (stereo not drawn) [Dobutamine], in assay [10], the EC50 was 2140 nM and the FOLD came out at 3.9 fold. Besides, the EC50 in assay [11] (setting [23]) was 550 nM.
For the compound `CN1CCC(c2c[nH]c3ccc(O)cc23)CC1.O=C(O)/C=C\C(=O)O` [BRL54443, 3-(1-Methylpiperidin-4-yl)-1H-indole-5-ol maleate], in assay [12], the EC50 was 1480 nM and the FOLD came out at 50 fold. Also, in [13], the EC50 was 174 nM and the FOLD is given as 5.9 fold. Besides, in [14], the “Ave −Log EC50” value worked out at 7.53 and the EC50 was 29.5 nM.
As to `OCCN1CCN(CCCN2c3ccccc3Sc3ccc(C(F)(F)F)cc32)CC1` [Fluphenazine], the EC50 in assay [15] was 6.76 nM; in assay [16] (setting [24]) it was 38.9 nM. Also, the FOLD in assay [16] came to 5.8 fold.
Regarding ANTHAMINE, the “Ave −Log EC50” value is 7.29 in assay [17] (Arginine 231 (K231R), agonists and inverse agonists, Table 11); 7.81 in [18] (setting [25]); 7.82 in [18] (setting [26]).
For the compound `CNCCC=C1c2ccccc2CCc2ccccc21` [Nortryptiline], the EC50 in assay [1] (Arginine 388 (wild type), Table 19, read-out: Ave −Log EC50 (converted)) is 39.8 nM.
As to “Leu/Pro NPY (from UniProt P01303 29-97) (peptide)”, the Ave -Log EC50, R-SAT functional potency in assay [19] was 7.5 -log EC50.
For `c1ccc(C2CC2)c(OCC2=NCCN2)c1` [Cirazoline], the EC50 is 14.5 nM in assay [20] (Cysteine 43 (G43C), read-out: Ave −Log EC50 (converted)); 47.9 nM in [10]; 42.7 nM in assay [11] (Glycine 43 (wild type), Table 1); 15.5 nM in assay [11] (setting [23]). The FOLD in assay [20] (shift in functional potency, Cysteine 43 vs Glycine 43) is listed as −3.0 fold; in assay [10] it was 3.1 fold.
“PEPTIDE YY (HUMAN) (from UniProt P10082 29-64)”: the Ave -Log EC50, R-SAT functional potency in assay [21] was 6.91 -log EC50; in assay [19], 9.94 -log EC50. In addition, the FOLD (shift in functional potency against wild type) in [21] stood at 1070 fold.
CCK-4 came in with an FOLD in assay [22] of −12.0 fold.
`CN1C[C@@H](NS(=O)(=O)N(C)C)C[C@@H]2c3cccc4c3c(cn4C)C[C@H]21` [Mesulergine]: the EC50 in assay [4] (Leucine 40 (wild type), Table 6, read-out: Ave −Log EC50 (converted)) is 3.55 nM; in assay [4] (Valine 208 (wild type), Table 7, read-out: Ave −Log EC50 (converted)) it was 6.92 nM; in assay [5] (Leucine 208 (V208L), Table 7, read-out: Ave −Log EC50 (converted)) it was 2.14 nM.
Regarding `OCCN1CCN(CC/C=C2/c3ccccc3Sc3ccc(C(F)(F)F)cc32)CC1` [Cis-flupenthixol], the figures for the “Ave −Log EC50” value in assay [15] and in assay [16] (setting [24]) were 8.05 and 7.61, respectively. Further, the FOLD in [16] amounted to 2.8 fold.
On to `OCCN1CCN([C@@H]2C[C@@H](c3ccc(F)cc3)c3ccc(C(F)(F)F)cc32)CC1` (racemic) [Tefludazine], for which the results for the EC50 in [15] and in [16] (setting [24]) were 0.417 nM and 11.2 nM, respectively. Also, the FOLD in [16] came to 27.0 fold.
Take `CN1CCN(CC/C=C2/c3ccccc3Sc3ccc(S(=O)(=O)N(C)C)cc32)CC1` [Thiothixene]: the EC50 is 6.92 nM in assay [15] and 21.9 nM in assay [16] (setting [24]). In assay [16], the FOLD is reported as 3.2 fold.
As for CCK-8-Sulfated, the FOLD in assay [22] was −3.0 fold.
Turning to `COc1ccc(C2CNC(=O)C2)cc1OC1CCCC1` (stereo not drawn) [ROLIPRAM], the EC50 in assay [17] is 692 nM; in assay [18] (setting [25]) it was 437 nM. This compound had an FOLD in assay [17] of 1.6 fold. Moreover, in assay [18] (setting [26]), the “Ave −Log EC50” value was 6.36.
Consider `CC(C)C[C@H]1C(=O)N2CCC[C@H]2[C@]2(O)O[C@](NC(=O)[C@@H]3C=C4c5cccc6[nH]c(Br)c(c56)C[C@H]4N(C)C3)(C(C)C)C(=O)N12` [Bromocriptine], for which the EC50 was 47.9 nM in assay [3]; 0.447 nM and 1.66 nM in assay [4] (Ave −Log EC50); 0.295 nM in assay [5].
As for `CN(C)CCCSC(=N)N`, the EC50 in [18] (setting [25]) is 234 nM. Besides, the “Ave −Log EC50” value in assay [18] (setting [26]) came to 6.63.

These data come from patent US7348140B1, “Clinical indications for genotyping polymorphic variants of G-protein coupled receptors” (Acadia Pharmaceuticals, Inc., priority 2001, dated 2008).
